The values below come from paper PMC5458078, “Global mapping of CARM1 substrates defines enzyme specificity and substrate recognition” (Nature Communications, 2017).

One test deals with MCF7 cells. In words: Quantitative nanoLC-MS/MS (TMT) of ADMA-containing peptides, CARM1 KO vs parental. The test is classed as cell-based, human. Details: Fold change KO/WT: scale not given here.
A further test concerns MCF7 CARM1 KO cells. The test is described as follows: Quantitative MS of ADMA-containing peptides in MCF7 CARM1 KO cells expressing CARM1 28-608 or CARM1 140-608, and in CARM1 KO. The test is classed as cell-based, human. The note with it: ratio on log2 scale, mean of 3 replicates.
[1] abbreviates: ADMA-containing peptide, CARM1 knockout (KO) vs wild type (WT) MCF7 cells, 6-plex TMT experiment #1, three biological replicates each, sheet "MCF7".
The mark [2] stands for this setting: MCF7 CARM1 knockout vs wild type, 3 biological replicates each, values are on log2 scale.
[3] abbreviates: MCF7, CARM1 KO (KO1-KO3) vs wild type (WT1-WT3).
Setting [4] is: MCF7, CARM1 KO vs WT, three biological replicates each.
[5] abbreviates: CARM1 KO vs wild type MCF7 cells, 3 biological replicates each.
The mark [6] stands for this setting: MCF7, CARM1 knockout vs wild type, n = 3 each.
Setting [7] is: ADMA-containing peptide, MCF7, CARM1 knockout (KO1-3) vs wild type (WT1-3), TMT 6-plex experiment #1.

Take MQLQQrLQGQQFLNQSrQALELK: the “Fold change KO/WT” value in the test on MCF7 cells (setting [1]) is given as -3.454. As for SLGSVQAPSYGARPVSSAASVYAGAGGSGSrISVSR, the “Fold change KO/WT” value with MCF7 cells (setting [2]) was -1.494. The same measure, in the same setting: next, AYGQQYWGQPGNrGGYR: -0.04736. Regarding “FLQPrLAPNQPPPPLIrPALAAPRHSARPGPQPPPTLIGTPLEPPAPSL”, the “Fold change KO/WT” value in the test on MCF7 cells (setting [3]) is reported as -2.908.

Take GGFQNrGGGSGGGGNYrGGFNR: the “Fold change KO/WT” value in the test with MCF7 cells (setting [2]) is on record as 0.1419. Consider “MrPQPYGGTNPYSQQQGPPSGPQQGHGYPGQPYGSQTPQrYPMTMQGR”, for which the “Fold change KO/WT” value in the test with MCF7 cells (setting [4]) is on record as -3.351.

As for “PVPPPPAPPPPPTFALANTEKPTLNKTEQAGrNALLSDISK”, the “Fold change KO/WT” value in the test on MCF7 cells (setting [5]) is -1.049. In the case of GPSGGYrGSGGFQrGGGrGAYGTGYFGQGR, in the test with MCF7 cells (setting [6]), the “Fold change KO/WT” value worked out at 0.2112. As for MGTPVPrPPQDMGQIGVRTPLGPR, the “Fold change KO/WT” value with MCF7 cells (setting [3]) is -2.466.

Take QLrMQLQQR: the “Fold change KO/WT” value in the test on MCF7 cells (setting [1]) is on record as -2.307. With “MGTPVPRPPQDMGQIGVRTPLGPrVAAPVGPVGPTPTVLPMGAPVPrPrGPPPPPGDENR”, the “Fold change KO/WT” value in the test on MCF7 cells (setting [3]) is given as -3.578.

In the case of AGPrLLLIPVQQGSPTLrPVSNTQLQGHrMVLQPVR, the “Fold change KO/WT” value with MCF7 cells (setting [1]) is recorded as -0.8102. For the substance INPGLEYrQHLLLrGPPPGSANPPR, the “Fold change KO/WT” value in the test with MCF7 cells (setting [2]) was -0.6044. The same measure, in the same setting: the result for LLGQRPGPYDrPIGGRGGYYGAGrGSMYDR reads 0.09272. For the substance SYSrGGGDQGYGSGR, the “Fold change KO/WT” value in the test on MCF7 cells (setting [3]) is on record as -0.3099. With SYrGGGGGGGGWR, the “Fold change KO/WT” value with MCF7 cells (setting [7]) is listed as -0.08168. On to “MGTPVPRPPQDMGQIGVrTPLGPRVAAPVGPVGPTPTVLPMGAPVPrPR”, for which the “Fold change KO/WT” value in the test on MCF7 cells (setting [3]) is -3.4667. Take FFHMPrFQHQAPrQLFYK: the “Fold change KO/WT” value in the test on MCF7 cells (setting [5]) was -1.814. As for AYSSFGGGrGSR, the “Fold change KO/WT” value with MCF7 cells (setting [6]) is -0.1369. Take LSLPPIHTLYQPrFGNSQSFTSK: in the test on MCF7 cells (setting [7]), the “Fold change KO/WT” value is listed as -2.191.

In the case of QGSIGLYTQNQPLPAGGPrVDPYrPVRLPMQK, the “Fold change KO/WT” value with MCF7 cells (setting [1]) is on record as -2.102. With SAGGRPGSGPQLGTGrGTLR, in the test on MCF7 cells (setting [6]), the “Fold change KO/WT” value is on record as -0.3785.

On to GAEAANVTGPDGVPVEGSrYAADR, for which the “Fold change KO/WT” value in the test with MCF7 cells (setting [5]) is recorded as -1.299. Take “TGALPGPGPLSNPrLGGLPGPGPMSNPrAGGLLGAGPDPrGGGPMGPGSGPNLR”: in the test on MCF7 cells (setting [4]), the “Fold change KO/WT” value is on record as -2.513.

Regarding INPGLEYrQHLLLR, in the test on MCF7 cells (setting [2]), the “Fold change KO/WT” value is on record as -1.551. For the substance “GrGTLTrGAFVGATAAPGYIAPGYGTPYGYSTAAPAYGLPKR”, the “Fold change KO/WT” value in the test on MCF7 cells (setting [7]) is on record as -0.6705.

Regarding TLLrGGMSLrGQNLLrGGR, the “Fold change KO/WT” value in the test with MCF7 cells (setting [4]) is on record as 0.06328.

As for LPPDRYCLTAPNYrLK, the “Fold change KO/WT” value in the test on MCF7 cells (setting [7]) is reported as -0.4021. QQQQQQQQQQQQLDLLFHQrIQISLWPR: the “Fold change KO/WT” value in the test with MCF7 cells (setting [6]) was -2.494. As to AGPrLLLIPVQQGSPTLRPVSNTQLQGHrMVLQPVR, the “Fold change KO/WT” value with MCF7 cells (setting [1]) is listed as -0.6769. For DLVILLYETALLSSDFGLEGPQTHANr, the “Fold change KO/WT” value with MCF7 cells (setting [2]) is reported as 0.05306.

Turning to NrGFYPWGQYNrGGYGNYR, the “Fold change KO/WT” value with MCF7 cells (setting [7]) is reported as -0.1483. With TEQAGrNALLSDISK, in the test with MCF7 cells (setting [5]), the “Fold change KO/WT” value was -1.119.

Take SNSGPYrGGYGGGGGYGGSSF: in the test with MCF7 cells (setting [6]), the “Fold change KO/WT” value was -0.1493. Take QGSIGLYTQNQPLPAGGPRVDPYrPVRLPMQK: the “Fold change KO/WT” value in the test with MCF7 cells (setting [1]) was -1.665. The same measure, in the same setting: the result for QVTITGSAASISLAQYLINAr reads -0.8472.

Turning to LLGQRPGPYDrPIGGrGGYYGAGrGSMYDR, the “Fold change KO/WT” value with MCF7 cells (setting [2]) is on record as -0.2245. As to LTrGQLQHLGTR, the “Fold change KO/WT” value in the test with MCF7 cells (setting [5]) was 0.1695. In the case of GPQWKRGArGGNLVTGTQr, the “Fold change KO/WT” value in the test on MCF7 cells (setting [2]) is given as -0.2728. ICEGIrPQIMNGPLHPRPLVALLDGR: in the test with MCF7 CARM1 KO cells, the “CARM1 140-608/WT” value is recorded as -0.2372 and the KO/WT is reported as -0.9025. Take TGFTNIPSrYGTNNR: the “Fold change KO/WT” value in the test with MCF7 cells (setting [3]) is given as -2.195.
